# Reference: patent publication US5079376A, “Novel substance UCT-1003 and process for producing the same” (Kyowa Hakko Kogyo, Ltd., priority 1989, dated 1992)
# Tests used:
# [1] = system: lymphocytic leukemia P388 tumor; assay: Anti-tumor activity against lymphocytic leukemia P388 tumor; assay type: in vivo, CDF1 mice; conditions: mean survival days vs PBS control
# Description: Five male CDF1 mice each having a weight of about 22 g were used for each group as test animals, and 1×10^6 cells of lymphocytic leukemia P388 tumor cells were intraperitoneally implanted into the animals. Phosphate solution saline (PBS) containing UCT-1003 (0.2 ml) was once administered intraperitoneally 24 hours after the implantation of tumor cells. The composition of PBS was 0.8 g/dl NaCl, 0.02 g/dl KCl, […] Na2 HPO4 and 0.02 g/dl KH2 PO4 (pH 7.2). For comparison, 0.2 ml of PBS containing mitomycin C was intraperitoneally administered 24 hours after the implantation of tumor cells. Increased life span determined from mean survival days after the implantation is shown in Table 3 as T/C (T: mean survival days of the test groups, C: mean survival days of the control group which received 0.2 ml of PBS intraperitoneally).
# [2] = system: Staphylococcus aureus ATCC 6538P; assay: Antibacterial activity (MIC), agar dilution method, Staphylococcus aureus; assay type: cell-based; conditions: ATCC6538P, pH 7, read-out: minimum inhibitory concentration (MIC)
# Description: (§1) The antibacterial activity was determined by the agar dilution method using a medium (pH 7) which comprises 3 g/l Bacto-Tryptone (Difco Laboratories), 3 g/l meat extract, 1 g/l yeast extract, 1 g/l glucose and 16 g/l agar.
# [3] = system: Enterococcus faecium ATCC 10541; assay: Antibacterial activity (MIC), agar dilution method, Enterococcus faecium; assay type: cell-based; conditions: ATCC10541, pH 7, read-out: minimum inhibitory concentration (MIC)
# Description: as §1
# [4] = system: Bacillus subtilis No. 10707; assay: Antibacterial activity (MIC), agar dilution method, Bacillus subtilis; assay type: cell-based; conditions: pH 7, read-out: minimum inhibitory concentration (MIC)
# Description: as §1
# [5] = system: Klebsiella pneumoniae ATCC 10031; assay: Antibacterial activity (MIC), agar dilution method, Klebsiella pneumoniae; assay type: cell-based; conditions: ATCC10031, pH 7, read-out: minimum inhibitory concentration (MIC)
# Description: as §1
# [6] = system: Escherichia coli ATCC 26; assay: Antibacterial activity (MIC), agar dilution method, Escherichia coli; assay type: cell-based; conditions: ATCC26, pH 7, read-out: minimum inhibitory concentration (MIC)
# Description: as §1
# [7] = system: Shigella sonnei ATCC 9290; assay: Antibacterial activity (MIC), agar dilution method, Shigella sonnei; assay type: cell-based; conditions: ATCC9290, pH 7, read-out: minimum inhibitory concentration (MIC)
# Description: as §1
# [8] = system: Salmonella typhi ATCC 9992; assay: Antibacterial activity (MIC), agar dilution method, Salmonella typhi; assay type: cell-based; conditions: Salmonella enterica, pH 7, read-out: minimum inhibitory concentration (MIC)
# Description: as §1
# [9] = system: T24 cells; assay: Anti-tumor activity against T24 cells (growth inhibition, Neutral Red); assay type: cell-based; conditions: Homo sapiens, T-24, 72 hours, 37° C.
# Description: T24 cells were suspended in a medium comprising F10 medium (Gibco Co., Ltd.), 0.1 g/ml fetal calf serum, 100 units/ml penicillin and 100 ug/ml streptomycin (hereinafter referred to as medium A) to a concentration of 2×10^4 cells/ml. The cell suspension thus prepared was put into wells of a 96-well microtiter plate in the amount of 0.1 ml per well. After incubation at 37° C. for 20 hours in a CO2 -incubator, 0.05 ml of a test sample appropriately diluted with medium A was added to each well. The cells were further cultured at 37° C. for 72 hours in the CO2 -incubator and the culture supernatant was removed. To the residue was added a medium comprising medium A and 0.02% Neutral Red in the amount of 0.1 ml per well, followed by culturing at 37° C. for one hour in the CO2 -incubator, whereby the cells were stained. After removal of the culture supernatant, the residue was washed once with physiological saline.
# The pigment was extracted with 0.001N hydrochloric acid/30% ethanol and absorbance at 550 nm was measured by using a microplate reader. The concentration of the test compound at which the growth of the cells is inhibited by 50% (IC50) was calculated by comparing the absorbance of untreated cells with those of the cells treated with the test compound at known concentrations.
# [10] = system: HeLaS3 cells; assay: Anti-tumor activity against HeLaS3 cells (growth inhibition, Neutral Red); assay type: cell-based; conditions: Homo sapiens, HeLa S3, 72 hours
# [11] = Solubility in solvents; assay type: physicochemical
Compound,"Increased life span (T/C) ([1]; 4 mg/kg, i.p. 24 hours after i.p. implantation)",MIC [2],MIC [3],MIC [4],MIC [5],MIC [6],MIC [7],MIC [8],IC50 [9],IC50 [10],"Increased life span (T/C) ([1]; 12.5 mg/kg, single i.p. 24 hours after i.p. implantation)","Increased life span (T/C) ([1]; 25 mg/kg, single i.p. 24 hours after i.p. implantation)","Increased life span (T/C) ([1]; 50 mg/kg, single i.p. 24 hours after i.p. implantation)",Solubility in solvents ([11]; chloroform and ethyl acetate),"Solubility in solvents ([11]; dimethylsulfoxide, pyridine, methanol, ethanol and acetone)",Solubility in solvents ([11]; water and n-hexane)
"CO[C@@]12[C@H](COC(N)=O)C3=C(C(=O)C(C)=C(N)C3=O)N1C[C@@H]1N[C@@H]12 [Mitomycin C, mitomycin C, reference compound]",1.57,,,,,,,,,,,,,,,
O=C1c2cc(O)cc(O)c2C(=O)c2c1cc1cc(O)cc(O)c1c2O [UCT-1003],,2.6 µg/mL,2.6 µg/mL,83 µg/mL,> 100 µg/mL,> 100 µg/mL,> 100 µg/mL,> 100 µg/mL,0.13 µg/mL,0.35 µg/mL,1.21,1.30,1.30,soluble,Readily soluble,sparingly soluble
